From PubChem BioAssay AID2060902 (Molecular Pharmacology Branch, DTP, NCI, 2025)

Test system: 485368-065-R3-J5-PDC spheroids with HUVEC/MSC, viability
Assay: Anticancer human tumor 485368-065-R3-J5-PDC patient-derived pancreatic carcinoma cell line growth inhibition [RAS]
Settings: for IC50: curve of first compound; for viability, T/C: stronger effect = lower value
How it was run: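 Tumour cells grown as complex spheroids with HUVEC endothelial cells and mesenchymal stem cells, treated with RAS pathway inhibitor combinations. Each agent spans half-log steps from near clinical Cmax, or 10 microM where Cmax is unknown.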

[1] = second compound 0.000949 µM, first compound 0.0316 µM
[2] = second compound 0.000949 µM, first compound 0.1 µM
[3] = second compound 0.003 µM, first compound 0.0316 µM
[4] = second compound 0.003 µM, first compound 0.1 µM
[5] = second compound 0.00949 µM, first compound 0.0316 µM
[6] = second compound 0.00949 µM, first compound 0.1 µM
[7] = second compound 0.03 µM, first compound 0.0316 µM
[8] = second compound 0.03 µM, first compound 0.1 µM
[9] = second compound 0.0949 µM, first compound 0.0316 µM
[10] = second compound 0.0949 µM, first compound 0.1 µM
[11] = second compound 0.3 µM, first compound 0.0316 µM
[12] = second compound 0.3 µM, first compound 0.1 µM
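Also: spheroids exposed to agents for seven days before readout.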

For CC(Nc1ccc2c(c1)OCCn1cc(N3C(=O)OCC3C(F)F)nc1-2)C(N)=O (stereo unspecified) + C=CC(=O)N1CCN(c2nc(OCC3CCCN3C)nc3c(F)c(-c4nc(N)cc(C)c4C(F)(F)F)c(Cl)cc23)C(C)C1, the IC50 (second compound 0.00316 µM) was greater than 10000 nM, the IC50 (second compound 0.01 µM) was greater than 10000 nM and the IC50 (second compound 0.0316 µM) was greater than 10000 nM. The IC50 (second compound 0.1 µM) was 9800 nM, the IC50 (second compound 0.316 µM) was greater than 10000 nM and the IC50 (second compound 1 µM) was 4990 nM. The viability, T/C (second compound 0.00316 µM, first compound 0.0316 µM) was 103%, the viability, T/C (second compound 0.00316 µM, first compound 0.1 µM) was 79.8% and the viability, T/C (second compound 0.00316 µM, first compound 0.316 µM) was 88.5%. The viability, T/C (second compound 0.00316 µM, first compound 1 µM) was 75.4%, the viability, T/C (second compound 0.00316 µM, first compound 3.16 µM) was 75.6% and the viability, T/C (second compound 0.00316 µM, first compound 10 µM) was 51.3%. For the same compound, the viability, T/C (second compound 0.01 µM, first compound 0.0316 µM) was 92.4%, the viability, T/C (second compound 0.01 µM, first compound 0.1 µM) was 86.9% and the viability, T/C (second compound 0.01 µM, first compound 0.316 µM) was 91.8%. The viability, T/C (second compound 0.01 µM, first compound 1 µM) was 72.8%, the viability, T/C (second compound 0.01 µM, first compound 3.16 µM) was 76.5% and the viability, T/C (second compound 0.01 µM, first compound 10 µM) was 49.5%. For the same compound, the viability, T/C (second compound 0.0316 µM, first compound 0.0316 µM) was 87.1%, the viability, T/C (second compound 0.0316 µM, first compound 0.1 µM) was 72.3% and the viability, T/C (second compound 0.0316 µM, first compound 0.316 µM) was 88%. For the same compound, the viability, T/C (second compound 0.0316 µM, first compound 1 µM) was 85.7%, the viability, T/C (second compound 0.0316 µM, first compound 3.16 µM) was 76.4% and the viability, T/C (second compound 0.0316 µM, first compound 10 µM) was 52.1%. The viability, T/C (second compound 0.1 µM, first compound 0.0316 µM) was 100%, the viability, T/C (second compound 0.1 µM, first compound 0.1 µM) was 97.6% and the viability, T/C (second compound 0.1 µM, first compound 0.316 µM) was 102%. It also gave a viability, T/C (second compound 0.1 µM, first compound 1 µM) of 82%, a viability, T/C (second compound 0.1 µM, first compound 3.16 µM) of 73.8% and a viability, T/C (second compound 0.1 µM, first compound 10 µM) of 49.3%. For the same compound, the viability, T/C (second compound 0.316 µM, first compound 0.0316 µM) was 98.5%, the viability, T/C (second compound 0.316 µM, first compound 0.1 µM) was 87.1% and the viability, T/C (second compound 0.316 µM, first compound 0.316 µM) was 78.4%. It also gave a viability, T/C (second compound 0.316 µM, first compound 1 µM) of 70.5%, a viability, T/C (second compound 0.316 µM, first compound 3.16 µM) of 82.8% and a viability, T/C (second compound 0.316 µM, first compound 10 µM) of 57.1%. It also gave a viability, T/C (second compound 1 µM, first compound 0.0316 µM) of 101%, a viability, T/C (second compound 1 µM, first compound 0.1 µM) of 90.5% and a viability, T/C (second compound 1 µM, first compound 0.316 µM) of 87.5%. For the same compound, the viability, T/C (second compound 1 µM, first compound 1 µM) was 84.7%, the viability, T/C (second compound 1 µM, first compound 3.16 µM) was 55% and the viability, T/C (second compound 1 µM, first compound 10 µM) was 41.3%.
With CC(C)n1nc(-c2ccc3oc(N)nc3c2)c2c(N)ncnc21 + CCn1c(-c2cc(N3CCN(C)CC3)cnc2C(C)OC)c2c3cc(ccc31)-c1csc(n1)CC(NC(=O)C1CC1C)C(=O)N1CCCC(N1)C(=O)OCC(C)(C)C2 the IC50 (second compound 0.000949 µM) was less than 0.316 nM, the IC50 (second compound 0.003 µM) was less than 0.316 nM and the IC50 (second compound 0.00949 µM) was less than 0.316 nM. For the same compound, the IC50 (second compound 0.03 µM) was less than 0.316 nM, the IC50 (second compound 0.0949 µM) was less than 0.316 nM and the IC50 (second compound 0.3 µM) was less than 0.316 nM. It also gave a viability, T/C (second compound 0.000949 µM, first compound 0.000316 µM) of 37.1%, a viability, T/C (second compound 0.000949 µM, first compound 0.001 µM) of 33.2% and a viability, T/C (second compound 0.000949 µM, first compound 0.00316 µM) of 25.4%. The viability, T/C (second compound 0.000949 µM, first compound 0.01 µM) was 25.5%, the viability, T/C [1] was 16.9% and the viability, T/C [2] was 14.4%. For the same compound, the viability, T/C (second compound 0.003 µM, first compound 0.000316 µM) was 23.3%, the viability, T/C (second compound 0.003 µM, first compound 0.001 µM) was 20.4% and the viability, T/C (second compound 0.003 µM, first compound 0.00316 µM) was 18.3%. The viability, T/C (second compound 0.003 µM, first compound 0.01 µM) was 15.1%, the viability, T/C [3] was 11.4% and the viability, T/C [4] was 8.13%. The viability, T/C (second compound 0.00949 µM, first compound 0.000316 µM) was 19.9%, the viability, T/C (second compound 0.00949 µM, first compound 0.001 µM) was 17.6% and the viability, T/C (second compound 0.00949 µM, first compound 0.00316 µM) was 15.4%. It also gave a viability, T/C (second compound 0.00949 µM, first compound 0.01 µM) of 11.2%, a viability, T/C [5] of 7.74% and a viability, T/C [6] of 7.71%. It also gave a viability, T/C (second compound 0.03 µM, first compound 0.000316 µM) of 13.6%, a viability, T/C (second compound 0.03 µM, first compound 0.001 µM) of 12.3% and a viability, T/C (second compound 0.03 µM, first compound 0.00316 µM) of 11.5%. For the same compound, the viability, T/C (second compound 0.03 µM, first compound 0.01 µM) was 10.1%, the viability, T/C [7] was 8.37% and the viability, T/C [8] was 6.86%. It also gave a viability, T/C (second compound 0.0949 µM, first compound 0.000316 µM) of 9.34%, a viability, T/C (second compound 0.0949 µM, first compound 0.001 µM) of 9.41% and a viability, T/C (second compound 0.0949 µM, first compound 0.00316 µM) of 9.4%. It also gave a viability, T/C (second compound 0.0949 µM, first compound 0.01 µM) of 8.96%, a viability, T/C [9] of 8.01% and a viability, T/C [10] of 7.66%. The viability, T/C (second compound 0.3 µM, first compound 0.000316 µM) was 8.85%, the viability, T/C (second compound 0.3 µM, first compound 0.001 µM) was 9.23% and the viability, T/C (second compound 0.3 µM, first compound 0.00316 µM) was 9.13%. It also gave a viability, T/C (second compound 0.3 µM, first compound 0.01 µM) of 7.72%, a viability, T/C [11] of 8.58% and a viability, T/C [12] of 6.19%.
In the case of CC(=O)OC12COC1CC(O)C1(C)C(=O)C(O)C3=C(C)C(OC(=O)C(O)C(NC(=O)OC(C)(C)C)c4ccccc4)CC(O)(C(OC(=O)c4ccccc4)C21)C3(C)C (stereo unspecified) + CCn1c(-c2cccnc2C(C)OC)c2c3cc(ccc31)N1CCOC(CC(NC(=O)C(C(C)C)N(C)C(=O)C3(F)CCN(C(=O)C#CC(C)(C)N(C)C)CC3)C(=O)N3CCCC(N3)C(=O)OCC(C)(C)C2)C1, the IC50 (second compound 0.000949 µM) is reported as less than 31.6 nM, the IC50 (second compound 0.003 µM) is reported as less than 31.6 nM and the IC50 (second compound 0.00949 µM) is reported as less than 31.6 nM. The IC50 (second compound 0.03 µM) was less than 31.6 nM, the IC50 (second compound 0.0949 µM) was less than 31.6 nM and the IC50 (second compound 0.3 µM) was less than 31.6 nM. The viability, T/C [1] was 12.6%, the viability, T/C [2] was 14.3% and the viability, T/C (second compound 0.000949 µM, first compound 0.316 µM) was 13.1%. It also gave a viability, T/C (second compound 0.000949 µM, first compound 1 µM) of 13.9%, a viability, T/C (second compound 0.000949 µM, first compound 3.16 µM) of 21.4% and a viability, T/C (second compound 0.000949 µM, first compound 10 µM) of 25.7%. The viability, T/C [3] was 15.6%, the viability, T/C [4] was 13.6% and the viability, T/C (second compound 0.003 µM, first compound 0.316 µM) was 14%. For the same compound, the viability, T/C (second compound 0.003 µM, first compound 1 µM) was 16.9%, the viability, T/C (second compound 0.003 µM, first compound 3.16 µM) was 18.9% and the viability, T/C (second compound 0.003 µM, first compound 10 µM) was 25.5%. It also gave a viability, T/C [5] of 13.2%, a viability, T/C [6] of 15.1% and a viability, T/C (second compound 0.00949 µM, first compound 0.316 µM) of 14%. It also gave a viability, T/C (second compound 0.00949 µM, first compound 1 µM) of 22.6%, a viability, T/C (second compound 0.00949 µM, first compound 3.16 µM) of 21.1% and a viability, T/C (second compound 0.00949 µM, first compound 10 µM) of 27.4%. For the same compound, the viability, T/C [7] was 12.2%, the viability, T/C [8] was 18.4% and the viability, T/C (second compound 0.03 µM, first compound 0.316 µM) was 19.4%. It also gave a viability, T/C (second compound 0.03 µM, first compound 1 µM) of 16.6%, a viability, T/C (second compound 0.03 µM, first compound 3.16 µM) of 21.1% and a viability, T/C (second compound 0.03 µM, first compound 10 µM) of 26%. For the same compound, the viability, T/C [9] was 10.7%, the viability, T/C [10] was 16.4% and the viability, T/C (second compound 0.0949 µM, first compound 0.316 µM) was 14.5%. For the same compound, the viability, T/C (second compound 0.0949 µM, first compound 1 µM) was 12.2%, the viability, T/C (second compound 0.0949 µM, first compound 3.16 µM) was 21.3% and the viability, T/C (second compound 0.0949 µM, first compound 10 µM) was 27.5%. It also gave a viability, T/C [11] of 13.1%, a viability, T/C [12] of 16.8% and a viability, T/C (second compound 0.3 µM, first compound 0.316 µM) of 15.9%. For the same compound, the viability, T/C (second compound 0.3 µM, first compound 1 µM) was 17.6%, the viability, T/C (second compound 0.3 µM, first compound 3.16 µM) was 27.7% and the viability, T/C (second compound 0.3 µM, first compound 10 µM) was 27.5%.
